Source: ChEMBL document CHEMBL1201862, “PubChem BioAssay data set” (2004)
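Dose response: 5 concentrations. Exposure: 48 h. Format: 96-well plates. Endpoint: linear interpolation; highest concentration if not reached. GI50 is the concentration that inhibits growth by half.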 Activity calls are given as the source filed them. Rule as the data show it: active = GI50 up to about 1.1 µM and inactive = higher.

Tests used:
Test in all cases: NCI anticancer screen, dose series, 48 h
CCRF-CEM = test system: CCRF-CEM
EKVX = test system: EKVX
HCT-116 = test system: HCT-116
HL-60 = test system: HL-60
HOP-62 = test system: HOP-62
K562 = test system: K562
Malme-3M = test system: Malme-3M
NCI-H226 = test system: NCI-H226
NCI-H23 = test system: NCI-H23
OVCAR-4 = test system: OVCAR-4
OVCAR-5 = test system: OVCAR-5
RPMI-8226 = test system: RPMI-8226
RXF 393 = test system: RXF 393
SK-OV-3 = test system: SK-OV-3
SN12C = test system: SN12C
SNB-19 = test system: SNB-19
SW-620 = test system: SW-620

With Cc1cc(N(CCC#N)CCC#N)ccc1/C(Sc1ccccc1)=C(\NC(=O)/C=C/c1ccccc1)C(=O)Sc1ccccc1 the GI50 (CCRF-CEM) was 0.271 µM (active), the GI50 (EKVX) was 6.18 µM (inactive) and the GI50 (HCT-116) was 2.17 µM (inactive). For the same compound, the GI50 (HL-60) was 0.628 µM (active), the GI50 (HOP-62) was 2.56 µM (inactive) and the GI50 (K562) was 2.41 µM (inactive). For the same compound, the GI50 (Malme-3M) was 8.28 µM (inactive), the GI50 (NCI-H226) was 2.56 µM (inactive) and the GI50 (NCI-H23) was 2.22 µM (inactive). For the same compound, the GI50 (OVCAR-4) was 3.06 µM (inactive), the GI50 (OVCAR-5) was 5.45 µM (inactive) and the GI50 (RPMI-8226) was 0.991 µM (active). For the same compound, the GI50 (RXF 393) was 1.56 µM (inactive), the GI50 (SK-OV-3) was 5.55 µM (inactive) and the GI50 (SN12C) was 1.7 µM (inactive). The GI50 (SNB-19) was 9.84 µM (inactive) and the GI50 (SW-620) was 4.12 µM (inactive).

CC12CC(=O)NN=C1c1ccccc1C2 (centres undefined) was tested, and the GI50 (CCRF-CEM) was > 100 µM (inactive), the GI50 (EKVX) was 98.2 µM (inactive) and the GI50 (HCT-116) was > 100 µM (inactive). For the same compound, the GI50 (HL-60) was > 100 µM (inactive), the GI50 (HOP-62) was > 100 µM (inactive) and the GI50 (K562) was > 100 µM (inactive). For the same compound, the GI50 (Malme-3M) was > 100 µM (inactive), the GI50 (NCI-H226) was > 100 µM (inactive) and the GI50 (NCI-H23) was > 100 µM (inactive). The GI50 (OVCAR-5) was > 100 µM (inactive), the GI50 (RPMI-8226) was > 100 µM (inactive) and the GI50 (RXF 393) was > 100 µM (inactive). For the same compound, the GI50 (SK-OV-3) was > 100 µM (inactive), the GI50 (SN12C) was > 100 µM (inactive) and the GI50 (SNB-19) was > 100 µM (inactive). For the same compound, the GI50 (SW-620) was > 100 µM (inactive).

COC(=O)C(=NNc1ccccc1[N+](=O)[O-])C(=O)OC was tested, and the GI50 (CCRF-CEM) was > 100 µM (inactive), the GI50 (EKVX) was > 100 µM (inactive) and the GI50 (HCT-116) was > 100 µM (inactive). The GI50 (HL-60) was > 100 µM (inactive), the GI50 (HOP-62) was > 100 µM (inactive) and the GI50 (K562) was > 100 µM (inactive). The GI50 (Malme-3M) was > 100 µM (inactive), the GI50 (NCI-H226) was > 100 µM (inactive) and the GI50 (NCI-H23) was > 100 µM (inactive). For the same compound, the GI50 (OVCAR-4) was 88.1 µM (inactive), the GI50 (OVCAR-5) was > 100 µM (inactive) and the GI50 (RXF 393) was > 100 µM (inactive). For the same compound, the GI50 (SK-OV-3) was > 100 µM (inactive), the GI50 (SN12C) was > 100 µM (inactive) and the GI50 (SNB-19) was > 100 µM (inactive). The GI50 (SW-620) was > 100 µM (inactive).

Cc1nc2ccccc2nc1CC(=O)C(=O)Nc1ccc(Cl)cc1Cl was tested, and the GI50 (CCRF-CEM) was > 100 µM (inactive), the GI50 (EKVX) was > 100 µM (inactive) and the GI50 (HCT-116) was > 100 µM (inactive). The GI50 (HL-60) was > 100 µM (inactive), the GI50 (HOP-62) was > 100 µM (inactive) and the GI50 (K562) was > 100 µM (inactive). For the same compound, the GI50 (Malme-3M) was > 100 µM (inactive), the GI50 (NCI-H23) was > 100 µM (inactive) and the GI50 (OVCAR-4) was > 100 µM (inactive). For the same compound, the GI50 (OVCAR-5) was > 100 µM (inactive), the GI50 (RPMI-8226) was > 100 µM (inactive) and the GI50 (RXF 393) was > 100 µM (inactive). For the same compound, the GI50 (SK-OV-3) was > 100 µM (inactive), the GI50 (SN12C) was > 100 µM (inactive) and the GI50 (SNB-19) was > 100 µM (inactive). The GI50 (SW-620) was > 100 µM (inactive).

Cc1nc(N)nc(N)c1CCCCc1ccccc1 was tested, and the GI50 (CCRF-CEM) was 3.72 µM (inactive), the GI50 (EKVX) was 20 µM (inactive) and the GI50 (HCT-116) was 5.21 µM (inactive). The GI50 (HL-60) was 4.55 µM (inactive), the GI50 (HOP-62) was 13.6 µM (inactive) and the GI50 (K562) was 0.841 µM (active). For the same compound, the GI50 (Malme-3M) was 13.3 µM (inactive), the GI50 (NCI-H23) was 4.29 µM (inactive) and the GI50 (OVCAR-4) was 58.6 µM (inactive). For the same compound, the GI50 (OVCAR-5) was 6.93 µM (inactive), the GI50 (RPMI-8226) was 20.8 µM (inactive) and the GI50 (RXF 393) was 11.1 µM (inactive). For the same compound, the GI50 (SK-OV-3) was 31.9 µM (inactive), the GI50 (SN12C) was 22.6 µM (inactive) and the GI50 (SNB-19) was 32.4 µM (inactive). The GI50 (SW-620) was 13.7 µM (inactive).

With CC1OC(OC2C(CO)OC(O[C@H]3CC[C@@]4(C)C(=CC[C@H]5[C@@H]6C[C@@H]7O[C@]8(CC[C@@H](C)CN8)[C@@H](C)[C@@H]7[C@@]6(C)CC[C@@H]54)C3)C(O)C2O)C(O)C(O)C1O (some centres undefined) the GI50 (CCRF-CEM) was > 100 µM (inactive), the GI50 (EKVX) was 76 µM (inactive) and the GI50 (HCT-116) was > 100 µM (inactive). For the same compound, the GI50 (HL-60) was > 100 µM (inactive), the GI50 (HOP-62) was > 100 µM (inactive) and the GI50 (K562) was > 100 µM (inactive). The GI50 (Malme-3M) was > 100 µM (inactive), the GI50 (NCI-H23) was > 100 µM (inactive) and the GI50 (OVCAR-4) was > 100 µM (inactive). For the same compound, the GI50 (OVCAR-5) was > 100 µM (inactive), the GI50 (RPMI-8226) was > 100 µM (inactive) and the GI50 (RXF 393) was > 100 µM (inactive). For the same compound, the GI50 (SK-OV-3) was > 100 µM (inactive), the GI50 (SN12C) was > 100 µM (inactive) and the GI50 (SNB-19) was > 100 µM (inactive). The GI50 (SW-620) was > 100 µM (inactive).

With COc1ccc([N+]2=NC(c3ccc([N+](=O)[O-])cc3)=NN(c3ccccc3)C2)cc1 the GI50 (CCRF-CEM) was 24.9 µM (inactive), the GI50 (EKVX) was 44.4 µM (inactive) and the GI50 (HCT-116) was 46 µM (inactive). The GI50 (HL-60) was 18.6 µM (inactive), the GI50 (HOP-62) was > 100 µM (inactive) and the GI50 (K562) was 21 µM (inactive). For the same compound, the GI50 (Malme-3M) was > 100 µM (inactive), the GI50 (NCI-H226) was 52.4 µM (inactive) and the GI50 (NCI-H23) was 55.8 µM (inactive). For the same compound, the GI50 (OVCAR-4) was 22.6 µM (inactive), the GI50 (OVCAR-5) was > 100 µM (inactive) and the GI50 (RPMI-8226) was 24.7 µM (inactive). For the same compound, the GI50 (RXF 393) was > 100 µM (inactive), the GI50 (SN12C) was > 100 µM (inactive) and the GI50 (SNB-19) was 71.9 µM (inactive). For the same compound, the GI50 (SW-620) was 68.4 µM (inactive).

Cc1cccc(-n2c(N)c(-c3nc4ccccc4[nH]3)sc2=S)c1 was tested, and the GI50 (CCRF-CEM) was 32.2 µM (inactive), the GI50 (EKVX) was 48.4 µM (inactive) and the GI50 (HL-60) was 26.5 µM (inactive). The GI50 (HOP-62) was 29.6 µM (inactive), the GI50 (K562) was 29.2 µM (inactive) and the GI50 (Malme-3M) was 28.8 µM (inactive). The GI50 (NCI-H226) was 32.7 µM (inactive), the GI50 (NCI-H23) was 49.8 µM (inactive) and the GI50 (OVCAR-4) was 43.4 µM (inactive). For the same compound, the GI50 (OVCAR-5) was 55.1 µM (inactive), the GI50 (RPMI-8226) was 20.7 µM (inactive) and the GI50 (RXF 393) was 33.3 µM (inactive). The GI50 (SK-OV-3) was 47.9 µM (inactive), the GI50 (SN12C) was 25.3 µM (inactive) and the GI50 (SNB-19) was 36.6 µM (inactive). The GI50 (SW-620) was 31.4 µM (inactive).
